# Measured values as given in patent publication US6900239B2, “Tumor chemopotentiation using isocoumarin derivatives” (ILWZ ILEX Products, Inc., priority 2000, dated 2005).
# Key:
# [1] = tested on: MM1.S human multiple myeloma cells; assay: Cell viability by MTT assay; format: cell-based
# Experimental: NM-3 was dissolved in Mg^2+ and Ca^2+ free phosphate buffered saline (PBS) by adding appropriate volume of 10 N NaOH (final pH<7.0). DEX was dissolved in absolute ethanol and diluted with PBS. Final concentration of ethanol in the culture medium was 0.5% or less. DOX was dissolved in PBS.
# The human multiple myeloma cell line MM1.S was maintained in RPMI1640 medium supplemented with 10% fetal bovine serum, 100 units/ml penicillin, and 100 μg/ml streptomycin at 37° C. in an atmosphere of 5% CO2 in air. Cells (3×10^4 cells/well) were seeded in 96 well-plates and incubated with increasing concentrations of DEX or DOX in the presence or absence of NM-3. NM-3 was added at concentrations of 0, 50, 100 and 200 μg/ml 2 hours before the addition of DOX or DEX. After 24 hours of DOX or DEX exposure, 10 μl of MTT reagent (Roche Molecular Biochemicals, final concentration 0.5 mg/ml) was added to each well and allowed to incubate for 4 hours. After the incubation, 100 μl of solubilization solution (10% sodium dodecyl sulfate in 0.01M HCl) was added to each well and allowed to incubate overnight. Optical density at 565 nm was determined using a spectrophotometer (Molecular Devices Corp.).
# [2] = tested on: MDAMB-435 human breast tumor xenografts; assay: MDAMB-435 orthotopic model, NM-3 with paclitaxel, first study; format: in vivo, female NCRNU nude mice; details: NM-3 100 mg/kg I.P. daily alone
# From the text: In order to determine the effect of the combination of NM-3 with the cytotoxic drug, paclitaxel on human breast tumor xenografts, female NCRNU nude mice were implanted with MDAMB-435 cells into the subaxillary mammary fat pad. […]
# [3] = tested on: MM1.S human multiple myeloma cells; assay: Apoptosis by annexin V-FITC and PI staining; format: cell-based
# Experimental: (§1) Apoptosis was determined by staining cells with annexin V-FITC and propidium iodide (PI). Cells were treated with DEX in the presence or absence of NM-3. NM-3 was added 2 hours before the addition of DEX. After 24 hours of DEX exposure, cells were washed twice with cold PBS, resuspended in binding buffer (10 mM HEPES/NaOH (pH 7.4), 140 mM NaCl, 2.5 mM CaCl2), and then stained with annexin V-FITC (Clontech Laboratories) and PI (Boehringer-Manheim). Apoptosis was analyzed by using a flow cytometer (EPICS XL-MCL, Coulter Corp). The cultured cells were also subjected to cell cycle analysis. Briefly, cells were washed twice with PBS and fixed with 70% ethanol. Cells were then washed with 0.5 ml PBS and 1.0 ml phosphate-citric acid buffer (0.2 M Na2HPO4 and 0.1 M citric acid (pH 7.8)), treated with 200 μg/ml RNase for 15 min at 37° C., and stained with 50 μg/ml PI for 30 min at room temperature in the dark. Cells were filtered through 35-μm diameter mesh to remove clumps. Nuclear staining was analyzed by a flow cytometer. Cells with fractional DNA content located on DNA frequency histograms to the left of the G1 peak (sub-G1 cells) were identified as apoptotic cells.
# Seg-1 tumors = assay: NM-3 and ionizing radiation, tumor growth; format: in vivo, C57BL/6 nude mice
# Experimental: (§2) The effects of NM-3 and IR on tumor growth were assessed in Lewis Lung Carcinoma (LLC), Seg-1, and SQ-20B tumors implanted in C57BL/6 nude mice.
# Seg-1 tumors in the control group and the NM-3-treated group grew to 6.30±0.42 and 6.74±0.62 times original volume by day 15 at which time the animals were sacrificed due to tumor burden. Tumors in the IR (4 doses of 5 Gy) group initially regressed (0.64±0.03 times original volume, day 7) and then regrew (1.83±0.11, day 15). […] (FIG. 8B).
# [4] = tested on: MM1.S human multiple myeloma cells; assay: Cell cycle profile (PI staining, sub-G1 cells); format: cell-based
# Experimental: as §1
# [5] = tested on: Lewis Lung carcinoma (LLC) tumors; assay: Radiation sensitivity of Lewis Lung carcinoma in vivo; design: species or system C57BL/6 female mice
# Experimental: To determine whether NM-3 treatment increases the radiation sensitivity of tumors in vivo, Lewis Lung carcinoma (LLC) tumors were established in C57BL/6 female mice (Frederick Cancer Research Institute) prior to NM-3 and radiation treatment. LLC cells (1×10^6 cells) were injected in the right hind limb of the mice and tumors were allowed to grow a volume of 250-350 mm^3. Tumor volumes were determined by direct measurements with calipers calculated by the formula: V=length×width×depth/2. Mice were then divided into groups and treated with NM-3 (100 mg/kg total) or PBS for two days before beginning radiation therapy. Animals then received NM-3 (25 mg/kg/day, i.p.) or PBS approximately four hours prior to radiation treatment. Tumors were irradiated using a GE Maxitron X-ray generator operating at 150 kV, 30 mA, using a 1 mm aluminum filter at a dose rate of 188 cGy/minute. Mice were shielded with lead except for the tumor-bearing area in the hind limb. Treatments and tumor measurements continued for a period of 17 days (see FIG. 4). […] Whereas control tumors reached 8 initial tumor volumes (Vo) after 8 days, X-ray treated tumors required 16 days to grow to this size. […] For comparison, data are plotted with two additional anti-angiogenic drugs, antiostatin and endostatin (see FIGS. 3B and 3C).
# SQ-20B tumors = assay: NM-3 and ionizing radiation, tumor growth; format: in vivo, C57BL/6 nude mice
# Experimental: as §2
# In experiments conducted using SQ-20B tumors, control tumors grew to 5.2±0.94 times original volume by day 20. […] Animals in these two groups were subsequently sacrificed because of tumor burden. […] By day 38, IR treated tumors regrew to twice original volume.
# [6] = NM-3 combined with IR (4 doses of 5 Gy)
structure (smiles),measurement,setting,value
"COc1cc(O)c2c(=O)oc(C(C)C(=O)O)cc2c1 (centres unmarked) [NM-3, 2-(8-hydroxy-6-methoxy-1-oxo-1H-2-benzopyran-3-yl) propionic acid]",Potentiation of DEX-induced cell death,"[1]; NM-3 50-200 μg/ml added 2 hours before DEX, 24 hours",potentiated DEX-induced cell death
same,Cell viability,"[1]; NM-3 alone, 50-200 μg/ml",only slightly decreased the cell viability
same,% Tumor Growth Inhibition,[2],15.29%
same,Final Tumor Wt. (mg) +/− SEM,[2],180.0 ± 18.13 mg
same,Mice with Complete Shrinkage,[2]; n 9,0
same,Population of cells positive for annexin V and PI (apoptotic cells),"[3]; NM-3 alone, 50-200 μg/ml",did not change the population of cells positive for annexin V and PI
same,DEX-induced increase of apoptotic cells,"[3]; pretreatment with NM-3, DEX 1 μM, 24 hours",further enhanced
same,Tumor volume,"Seg-1 tumors; NM-3 alone, day 15",6.74±0.62 times original volume
same,Growth delay compared to IR alone group,Seg-1 tumors; [6],3 days
same,Growth delay compared to the control group,Seg-1 tumors; [6],14 days
same,Mean tumor volume compared with IR alone,"Seg-1 tumors; NM-3 combined with IR (4 doses of 5 Gy), days 15, 17, 19, 21 and 23",significantly reduced mean tumor volume
same,Cell cycle profiles,"[4]; NM-3 alone, 50-200 μg/ml",only nominal effects
same,DEX-induced sub-G1 cells (apoptotic cells),"[4]; NM-3 with DEX 1 μM, 24 hours, concentration-dependent",increased DEX-induced sub-G1 cells
same,Further tumor growth,"[5]; NM-3 25 mg/kg/day i.p. added to radiotherapy, 17 days",markedly reduced
same,Tumor growth,[5]; NM-3 alone,did not inhibit tumor growth at all
same,Radiation sensitization of tumors,[5]; combined with X-ray treatment,dramatically enhances the sensitivity
same,Tumor volume,"SQ-20B tumors; NM-3 alone, day 20",4.3±1.03 times original volume
same,Tumor size,"SQ-20B tumors; NM-3 and IR (65 Gy), by day 6",doubled in size
same,Tumor regrowth,"SQ-20B tumors; NM-3 and IR (65 Gy), by day 38, p=0.006 vs IR alone",failed to reach original volume
same,"Tumor volume, % of original volume","SQ-20B tumors; NM-3 and IR (65 Gy), day 23",77%
